Assay results: patent US11371055B2, “Herbicide resistance genes” (CORTEVA AGRISCIENCE LLC, priority 2005, dated 2022)

Assays:
[1] = system: AAD-12 (v1)-containing T0 soybean plants; experiment: 2,4-D spray application on T0 soybean; type: in vivo, Glycine max
Source text: Plants that are transferred to the greenhouse can be assayed for the presence of an active PAT gene further with a non-destructive manner by painting a section of leaf of the T0 primary transformant, or progeny thereof, with a glufosinate solution [0.05-2% v/v Liberty Herbicide, preferably 0.25-1.0% (v/v),=500-2000 ppm glufosinate, Bayer Crop Science]. Depending on the concentration used, assessment for glufosinate injury can be made 1-7 days after treatment. Plants can also be tested for 2,4-D tolerance in a non-destructive manner by selective application of a 2,4-D solution in water (0.25-1% v/v commercial 2,4-D dimethylamine salt formulation, preferably 0.5% v/v=2280 ppm 2,4-D ae) to the terminal leaflet of the newly expanding trifoliolate one or two, preferably two, nodes below the youngest emerging trifolioate. This assay allows assessment of 2,4-D sensitive plants 6 hours to several days after application by assessment of leaf flipping or rotation >90 degrees from the plane of the adjacent leaflets. Plants tolerant to 2,4-D will not respond to 2,4-D. To plants will be allowed to self fertilize in the greenhouse to give rise to T1 seed. T1 plants (and to the extent enough T0 plant clones are produced) will be sprayed with a range of herbicide doses to determine the level of herbicide protection afforded by AAD-12 (v1) and PAT genes in transgenic soybean. Rates of 2,4-D used on T0 plants will typically comprise one or two selective rates in the range of 100-1120 g ae/ha using a track sprayer as previously described. T1 plants will be treated with a wider herbicide dose ranging from 50-3200 g ae/ha 2,4-D. Likewise, T0 and T1 plants can be screened for glufosinate resistance by postemergence treatment with 200-800 and 50-3200 g ae/ha glufosinate, respectively. Glyphosate resistance (in plants transformed with constructs that contain EPSPS) or another glyphosate tolerance gene can be assessed in the T1 generation by postemergence applications of glyphosate with a dose range from 280-2240 g ae/ha glyphosate. Analysis of protein expression will occur as described in below. Individual T0 plants were assessed for the presence of the coding region of the gene of interest (AAD-12 (v1) or PAT v6) and copy number. Determination of the inheritance of AAD-12 (v1) will be made using T1 and T2 progeny segregation with respect to herbicide tolerance as described in previous examples. […]

[2] = system: AAD-12 (v1) T0 Maverick soybean plants; experiment: 2,4-D leaf paint (leaf flip assay) on T0 soybean; type: in vivo, Glycine max; parameters: key to Leaf flip assay (18 HAT) Node N-1 / Leaf flip assay (18 HAT) Node N-2: 1 = Flip; 0 = No Flip; settings: for Leaf flip assay (18 HAT) Node N-1 / Leaf flip assay (18 HAT) Node N-2: 2,4-D leaf paint
Source text: Plants that are transferred to the greenhouse can be assayed for the presence of an active PAT gene further with a non-destructive manner by painting a section of leaf of the T0 primary transformant, or progeny thereof, with a glufosinate solution [0.05-2% v/v Liberty Herbicide, preferably 0.25-1.0% (v/v),=500-2000 ppm glufosinate, Bayer Crop Science]. Depending on the concentration used, assessment for glufosinate injury can be made 1-7 days after treatment. Plants can also be tested for 2,4-D tolerance in a non-destructive manner by selective application of a 2,4-D solution in water (0.25-1% v/v commercial 2,4-D dimethylamine salt formulation, preferably 0.5% v/v=2280 ppm 2,4-D ae) to the terminal leaflet of the newly expanding trifoliolate one or two, preferably two, nodes below the youngest emerging trifolioate. This assay allows assessment of 2,4-D sensitive plants 6 hours to several days after application by assessment of leaf flipping or rotation >90 degrees from the plane of the adjacent leaflets. Plants tolerant to 2,4-D will not respond to 2,4-D. To plants will be allowed to self fertilize in the greenhouse to give rise to T1 seed. T1 plants (and to the extent enough T0 plant clones are produced) will be sprayed with a range of herbicide doses to determine the level of herbicide protection afforded by AAD-12 (v1) and PAT genes in transgenic soybean. Rates of 2,4-D used on T0 plants will typically comprise one or two selective rates in the range of 100-1120 g ae/ha using a track sprayer as previously described. T1 plants will be treated with a wider herbicide dose ranging from 50-3200 g ae/ha 2,4-D. Likewise, T0 and T1 plants can be screened for glufosinate resistance by postemergence treatment with 200-800 and 50-3200 g ae/ha glufosinate, respectively. Glyphosate resistance (in plants transformed with constructs that contain EPSPS) or another glyphosate tolerance gene can be assessed in the T1 generation by postemergence applications of glyphosate with a dose range from 280-2240 g ae/ha glyphosate. Analysis of protein expression will occur as described in below. Individual T0 plants were assessed for the presence of the coding region of the gene of interest (AAD-12 (v1) or PAT v6) and copy number. Determination of the inheritance of AAD-12 (v1) will be made using T1 and T2 progeny segregation with respect to herbicide tolerance as described in previous examples.
A subset of the initial transformants were assessed in the T0 generation according to the methods above. […] PAT-only transformed plants responded the same at wildtype plants to leaf paint applications of 2,4-D

[3] = event D-2-14 (pDAB4464, CsVMV), spray POST over the top 560 g ae/ha 2,4-D
[4] = event D-3-5 (pDAB4468, AtUbi10), spray POST over the top 560 g ae/ha 2,4-D
[5] = event D-3-6 (pDAB4468, AtUbi10), spray POST over the top 560 g ae/ha 2,4-D
[6] = event D-3-9 (pDAB4468, AtUbi10), spray POST over the top 1120 g ae/ha 2,4-D
[7] = event D-4-17 (pDAB4468, AtUbi10), spray POST over the top 1120 g ae/ha 2,4-D
[8] = event D-5-2 (pDAB4472, AtUbi3), spray POST over the top 560 g ae/ha 2,4-D

Which “response to herbicide spray application” value ([1]; 560 or 1120 g ae 2,4-D) does the source give for `O=C(O)COc1ccc(Cl)cc1Cl` [2,4-D, 2,4-dichlorophenoxyacetic acid] here?
The value was “clearly resistant”.

And the “% injury 2 DAT” value [1, 3]?
The value was 0%.

What about the “% injury 7 DAT” value [1, 3] of the same molecule?
The value was 0%.

What about the “% injury 14 DAT” value [1, 3] of the same molecule?
The value was 0%.

And the “% injury 2 DAT” value [1, 4]?
Its value is 0%.

What about the “% injury 7 DAT” value [1, 4] of the same molecule?
The value was 0%.

And the “% injury 14 DAT” value [1, 4]?
The value was 0%.

What about the “% injury 2 DAT” value [1, 5] of the same molecule?
Its value is 0%.

What about the “% injury 7 DAT” value [1, 5] of the same molecule?
Its value is 0%.

What about the “% injury 14 DAT” value [1, 5] of the same molecule?
Its value is 0%.

What about the “% injury 2 DAT” value [1, 6] of the same molecule?
The value was 0%.

And the “% injury 7 DAT” value [1, 6]?
The value was 0%.

What about the “% injury 14 DAT” value [1, 6] of the same molecule?
Its value is 0%.

What about the “% injury 2 DAT” value [1, 7] of the same molecule?
Its value is 5%.

And the “% injury 7 DAT” value [1, 7]?
The value was 0%.

And the “% injury 14 DAT” value [1, 7]?
Its value is 0%.

What about the “% injury 2 DAT” value [1, 8] of the same molecule?
The value was 5%.

What about the “% injury 7 DAT” value [1, 8] of the same molecule?
Its value is 0%.

What about the “% injury 14 DAT” value [1, 8] of the same molecule?
Its value is 0%.

And the “Leaf flip assay (18 HAT) Node N-1” value ([2]; event D-1-14 (pDAB4464, AAD-12, CsVMV))?
Its value is 0.

What about the “Leaf flip assay (18 HAT) Node N-2” value ([2]; event D-2-9 (pDAB4464, AAD-12, CsVMV)) of the same molecule?
The value was 0.

What about the “Leaf flip assay (18 HAT) Node N-2” value ([2]; event D-2-14 (pDAB4464, AAD-12, CsVMV)) of the same molecule?
Its value is 0.

What about the “Leaf flip assay (18 HAT) Node N-2” value ([2]; event D-3-5 (pDAB4468, AAD-12, AtUbi10)) of the same molecule?
The value was 0.

And the “Leaf flip assay (18 HAT) Node N-1” value ([2]; event D-3-6 (pDAB4468, AAD-12, AtUbi10))?
The value was 0.

And the “Leaf flip assay (18 HAT) Node N-2” value ([2]; event D-3-7 (pDAB4468, AAD-12, AtUbi10))?
The value was 0.

What about the “Leaf flip assay (18 HAT) Node N-2” value ([2]; event D-3-9 (pDAB4468, AAD-12, AtUbi10)) of the same molecule?
Its value is 0.

What about the “Leaf flip assay (18 HAT) Node N-2” value ([2]; event D-4-11B (pDAB4468, AAD-12, AtUbi10)) of the same molecule?
The value was 0.

And the “Leaf flip assay (18 HAT) Node N-2” value ([2]; event D-4-16 (pDAB4468, AAD-12, AtUbi10))?
Its value is 0.

What about the “Leaf flip assay (18 HAT) Node N-2” value ([2]; event D-4-17 (pDAB4468, AAD-12, AtUbi10)) of the same molecule?
The value was 0.

What about the “Leaf flip assay (18 HAT) Node N-1” value ([2]; event D-5-2 (pDAB4472, AAD-12, AtUbi3)) of the same molecule?
Its value is 0.

What about the “Leaf flip assay (18 HAT) Node N-2” value ([2]; event D-9-1 (pDAB4480, AAD-12, AtAct2)) of the same molecule?
Its value is 0.

What about the “response to 2,4-D leaf painting” value ([2]; 2,4-D solution applied to terminal leaflet) of the same molecule?
The value was “did not respond”.
